Bounds are passed on as bounds.

One test addresses T1, Corticotropin-releasing factor receptor 1 (Homo sapiens, UniProt P34998).
T1 sequence (P34998 whole entry): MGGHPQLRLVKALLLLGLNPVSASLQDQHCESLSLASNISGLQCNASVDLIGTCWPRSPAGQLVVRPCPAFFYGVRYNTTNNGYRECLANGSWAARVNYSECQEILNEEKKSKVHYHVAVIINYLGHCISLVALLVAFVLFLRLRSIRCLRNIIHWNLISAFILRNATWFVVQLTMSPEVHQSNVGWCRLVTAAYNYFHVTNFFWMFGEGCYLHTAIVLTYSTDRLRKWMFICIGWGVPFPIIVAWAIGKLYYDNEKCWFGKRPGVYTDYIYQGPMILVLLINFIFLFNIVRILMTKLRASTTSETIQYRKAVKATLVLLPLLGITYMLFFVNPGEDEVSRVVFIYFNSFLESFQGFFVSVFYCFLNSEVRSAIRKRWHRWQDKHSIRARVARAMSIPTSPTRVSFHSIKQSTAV
The experiment in a line: Inhibition of CRF-stimulated cAMP production in cells expressing CRF1 receptor.
A word on the IC50: it is the concentration needed to halve the response being measured. Low readings indicate higher potency, high ones lower potency. Consider `CCCN(CCC)c1cc(C)nc2c(-c3ncc([N+](=O)[O-])cc3C)c(C)nn12`, for which the IC50 was 180 nM.
On to `CCCN(CCC)c1cc(C)nc2c(-c3ncc(N(C)C)cc3C)c(C)nn12`, for which the IC50 came to 150 nM.
The same measure, in the same setting: then `CCCN(CCC)c1cc(C)nc2c(-c3ncc(Cl)cc3Cl)c(C)nn12`, with 49 nM.

The target in a further test is T1, Corticotropin-releasing factor receptor 1. The experiment in a line: Binding affinity for recombinant human CRF1 receptor.
For orientation: Ki means the dissociation constant of the complex between target and ligand, obtained from inhibition or displacement. Turning to `CCCN(CCC)c1cc(C)nc2c(-c3ncc(C)cc3NC)c(C)nn12`, the Ki came out at 13 nM.
`CCCN(CCC)c1cc(C)nc2c(-c3ncccc3C)c(C)nn12`: the Ki was 110 nM.
The same measure, in the same setting: under `CCCN(CCC)c1cc(C)nc2c(-c3ncc(F)cc3C)c(C)nn12` stands 19 nM; under `CCCN(CCC)c1cc(C)nc2c(-c3ncc(C)cc3N=O)c(C)nn12`, above 10000 nM; under `CCCN(CCC)c1cc(C)nc2c(-c3ncc(N=O)cc3C)c(C)nn12`, 100 nM.
On the same count and under the same terms, under `CCCN(CCOC)c1cc(C)nc2c(-c3ncc(Cl)cc3Cl)c(C)nn12` stands 3.2 nM; under `CCCN(CCC)c1cc(C)nc2c(-c3ncc(C)cc3Cl)c(C)nn12`, 6.2 nM.
The same measure, in the same setting: under `CCCN(CCC)c1cc(C)nc2c(-c3ncc(C(F)(F)F)cc3Cl)c(C)nn12` stands 1.2 nM; under `CCCN(CCC)c1cc(C)nc2c(-c3ncc([N+](=O)[O-])cc3C)c(C)nn12`, 9.1 nM; under `CCCCN(CCCC)c1cc(C)nc2c(-c3ncc(C(F)(F)F)cc3Cl)c(C)nn12`, 1.1 nM.
Consider `CCCN(CCC)c1cc(C)nc2c(-c3ncc(Cl)cc3C)c(C)nn12`, for which the Ki was found to be 6.7 nM.
With `CCCN(CCC)c1cc(C)nc2c(-c3ncc(N4CCCCC4)cc3C)c(C)nn12`, the inhibition constant (Ki) came out at 17 nM.
The same measure, in the same setting: then `CCCN(CCC)c1cc(C)nc2c(-c3ncc(C)cc3O)c(C)nn12`, with above 10000 nM.
For the compound `CCCN(CCC)c1cc(C)nc2c(-c3ncc(I)cc3C)c(C)nn12`, the Ki came to 6.6 nM.
On the same count and under the same terms, then `CCCN(CCC)c1cc(C)nc2c(-c3ncc(C)cc3N(C)C)c(C)nn12`, with 23 nM; and `CCCN(CCC)c1cc(C)nc2c(-c3ncc(O)cc3C)c(C)nn12`, with 530 nM.
Same read-out and setting: under `CCCN(CCC)c1cc(C)nc2c(-c3ncc(N)cc3C)c(C)nn12` stands 85 nM.
`CCCN(CCC)c1cc(C)nc2c(-c3ncc(N(C)C)cc3C)c(C)nn12`: the inhibitory constant (Ki) worked out at 10 nM.
`CCCN(CCC)c1cc(C)nc2c(-c3ccc(Cl)cn3)c(C)nn12`: the Ki worked out at 88 nM.
Still for that read-out and setting: under `COCCN(CCOC)c1cc(C)nc2c(-c3ncc(Cl)cc3Cl)c(C)nn12` stands 78 nM; under `CCCN(CCC)c1cc(C)nc2c(-c3ncc(C)cc3N)c(C)nn12`, 40 nM; under `CCCN(CCC)c1cc(C)nc2c(-c3ncc(NC)cc3C)c(C)nn12`, 40 nM.
On the same count and under the same terms, under `CCCN(CC1CC1)c1cc(C)nc2c(-c3ncc(Cl)cc3Cl)c(C)nn12` stands 3.9 nM; under `CCCN(CCC)c1cc(C)nc2c(-c3ncc(N(CC)CC)cc3C)c(C)nn12`, 13 nM.
As to `CCCCN(CCC)c1cc(C)nc2c(-c3ncc(C(F)(F)F)cc3Cl)c(C)nn12`, the inhibitory constant (Ki) turned out to be 1.2 nM.
Regarding `CCCN(CCC)c1cc(C)nc2c(-c3ncc(C)cc3OC)c(C)nn12`, the Ki amounted to 25 nM.
In the case of `CCCN(CCC)c1cc(C)nc2c(-c3ncc(Cl)cc3Cl)c(C)nn12`, the Ki is 3.2 nM.
Take `CCCN(Cc1ccccc1)c1cc(C)nc2c(-c3ncc(C(F)(F)F)cc3Cl)c(C)nn12`: the Ki came out at 1.7 nM.
Consider `CCCN(CCC)c1cc(C)nc2c(-c3ncc(C)cc3[N+](=O)[O-])c(C)nn12`, for which the Ki was determined as 14 nM.
Regarding `CCCN(CC1CC1)c1cc(C)nc2c(-c3ncc(C(F)(F)F)cc3Cl)c(C)nn12`, the inhibition constant Ki came to 0.8 nM.
As to `CCCN(CCC)c1cc(C)nc2c(-c3ncc(OC)cc3C)c(C)nn12`, the Ki was 10 nM.
